The values that follow come from US8309766B2 (Obschestvo S. Organichennoi Otvetstvennostiyu …, priority 2005, dated 2012).

Where two headings read alike, the source gives them in different places.

Experiment [1] relates to "hot plate" test in mice. Put plainly: Analgetic activity on the model "hot plate". Conditions: for change in vivo at 200 mg/kg / response vs control in vivo at 200 mg/kg / response vs control in vivo at 10 mg/kg / change in vivo at 10 mg/kg: Mus musculus; for change in vivo at 200 mg/kg / change in vivo at 10 mg/kg: read-out: Analgesia (%); for response vs control in vivo at 200 mg/kg / response vs control in vivo at 10 mg/kg: read-out: Latent time of NT (%); for Latent time of NT (%) / response vs control in vivo at 10 mg/kg: percent of background. It is filed as in vivo, white mongrel mice. On the procedure:
The tests were conducted on males of white mongrel mice weighing 22-24 grams. The animals were individually placed on a hot plate (manufactured by the firm “Ugo Basile”), a temperature of which remained constant and was equal to 55° C. The following first manifestations of pain reaction were recorded: licking paws, jumping up prior to administration of a substance (background parameters) and 0.5, 1, 2, 3 and 4 hours post administration of a substance. Substances were administered […] (using a probe). A weighed amount of a substance was thoroughly mixed in 0.1 ml Tween 80 until a solution was obtained, then normal saline was added up to a volume of 0.5 ml. Average latent time of nociception threshold (NT) was calculated in every group. The results obtained were expressed in percent of the background values. Analgetic effect (in %) was calculated according to the formula: A−100%=X, wherein A is a background parameter; X is analgetic effect (in %)
A is (time 0.5 to 4 hours post administration×100%): background time
As reference drugs, Analgin (150 mg/kg), Paracetamol (200 mg/kg), Ketorol (10 mg/kg), were used.

Experiment [2] deals with "acetic contortions" in mice. Put plainly: Analgetic activity on the model "acetic contortions". The format is in vivo, white mongrel mice. On the procedure: The tests were conducted on males of white mongrel mice weighing 22-24 grams. The specific pain response (“contortions”) were elicited by intraperitoneal administration to mice of 0.75% acetic acid solution. The following signs were taken into consideration: the number of seizure contractions of abdominal muscles accompanied by stretching the hind limbs and sagging the back. Analgetic effect was assessed by decrease in the number of contortions in animals in percent to the control for 15 minutes post administration of acetic acid. The technique of the tests is disclosed in Koster R., Anderson M., de Beer B.//Fed. Proc. 1959. V. 18. P. 412. Compounds under testing were administered intraperitoneally (using a probe) at a dose 10 μg/kg 60 minutes prior to injection of the acid. Diclofenac (10 mg/kg) was used as a reference drug. Analgetic effect was calculated according to the formula: […]
wherein Ck is the number of contortions in the control group,
Co is the number of contortions in the test group.

Where [3] appears, read: 0.5 h, Paracetamol 200 mg/kg, 30 minutes.
The mark [4] stands for this setting: 1 h, Paracetamol 200 mg/kg, 60 minutes.
Setting [5] is: 2 h, Paracetamol 200 mg/kg, 120 minutes.
Setting [6] is: dose 10 mg/kg (table title), 60 minutes prior to acetic acid.
The mark [7] stands for this setting: 10 mg/kg, 30 minutes post administration.
The mark [8] stands for this setting: 10 mg/kg, 60 minutes post administration.
Setting [9] is: 10 mg/kg, 120 minutes post administration.
[10] abbreviates: Mus musculus, ip, 0.25 h, dose 10 mg/kg (table title), read-out: Analgetic effect (%).
Where [11] appears, read: Mus musculus, ip, 0.25 h, dose 10 mg/kg (table title), read-out: C, % to the control.

Turning to `CC(=O)Nc1ccc(O)cc1` [Paracetamol, reference compound], the change in vivo at 200 mg/kg in experiment [1] (setting [3]) was 139%; in experiment [1] (setting [4]) it was 58%; in experiment [1] (setting [5]), 92%. The response vs control in vivo at 200 mg/kg in experiment [1] (setting [3]) stood at 239%; in experiment [1] (setting [4]) it was 158%; in experiment [1] (setting [5]), 192%. Moreover, the “latent time of nociception threshold, M ± m” value (from here on “latent time … M ± m”) in experiment [1] (Paracetamol 200 mg/kg, 30 minutes) is 9.44 ± 1.3 s; in experiment [1] (Paracetamol 200 mg/kg, 60 minutes) it was 6.24 ± 0.82 s; in experiment [1] (Paracetamol 200 mg/kg, 120 minutes), 7.6 ± 1.15 s.
Regarding `O=C(CCc1ccccc1)N[C@@H](Cc1ccc(O)cc1)C(=O)OCc1ccccc1` [Compound XXX, 3-phenylproponyltyrosine benzyl ester], in experiment [2] (dose 10 mg/kg (table title)), the “Analgetic effect, %” value is listed as 36.1%. In addition, the “C, % to the control” value in experiment [2] (dose 10 mg/kg (table title)) was 63.9%. The “C ± m (the number of contortions for 15 minutes)” value in experiment [2] (setting [6]) is given as 11.9 ± 1.7. Moreover, the “Analgesia (%)” value is on record as 68.3% in experiment [1] (10 mg/kg, 30 minutes); 113.8% in experiment [1] (10 mg/kg, 60 minutes); 121.9% in experiment [1] (10 mg/kg, 120 minutes). Besides, the “latent time … M ± m” value in experiment [1] (setting [7]) came out at 6.9 ± 0.8 s; in experiment [1] (setting [8]) it was 9.0 ± 0.9 s; in experiment [1] (setting [9]), 9.1 ± 1.4 s. Besides, the “Latent time of NT (%)” value came to 168.3% in experiment [1] (10 mg/kg, 30 minutes); 213.8% in experiment [1] (10 mg/kg, 60 minutes); 221.9% in experiment [1] (10 mg/kg, 120 minutes).
Take `O=C(CCc1ccccc1)NCCc1ccccc1` [Compound XI, 3-phenylpropionylphenylethylamine]: the inhibition in vivo at 10 mg/kg in experiment [2] (setting [10]) turned out to be 38.2%. In addition, the response vs control in vivo at 10 mg/kg came to 61.8% in experiment [2] (setting [11]); 143% in experiment [1] (0.5 h, 10 mg/kg, 30 minutes); 174% in experiment [1] (1 h, 10 mg/kg, 60 minutes); 141% in experiment [1] (3 h, 10 mg/kg, 180 minutes); 136% in experiment [1] (4 h, 10 mg/kg, 240 minutes). Further, in experiment [2] (setting [6]), the “C ± m (the number of contortions for 15 minutes)” value is 21.2 ± 2.5. In addition, the “latent time … M ± m” value is 5.35 ± 0.98 s in experiment [1] (setting [7]); 6.49 ± 1.1 s in experiment [1] (setting [8]); 6.27 ± 0.33 s in experiment [1] (10 mg/kg, 180 minutes post administration); 4.07 ± 0.26 s in experiment [1] (10 mg/kg, 240 minutes post administration). Also, the change in vivo at 10 mg/kg worked out at 43.4% in experiment [1] (0.5 h, 10 mg/kg, 30 minutes); 74% in experiment [1] (1 h, 10 mg/kg, 60 minutes); 41.3% in experiment [1] (3 h, 10 mg/kg, 180 minutes); 35.9% in experiment [1] (4 h, 10 mg/kg, 240 minutes).
Take `O=C(Cc1ccc(O)cc1)NCCc1ccc(O)cc1` [Compound VII, p-hydroxyphenylacetyltyramine]: the “latent time … M ± m” value in experiment [1] (setting [8]) was 6.9 ± 0.72 s; in experiment [1] (setting [9]), 8.2 ± 0.94 s. Further, the response vs control in vivo at 10 mg/kg in experiment [1] (1 h, 10 mg/kg, 60 minutes) was determined as 134%; in experiment [1] (2 h, 10 mg/kg, 120 minutes), 159%. For the same molecule, the change in vivo at 10 mg/kg in experiment [1] (1 h, 10 mg/kg, 60 minutes) was 34.5%; in experiment [1] (2 h, 10 mg/kg, 120 minutes), 58.9%.
In the case of `O=C(O)Cc1ccccc1Nc1c(Cl)cccc1Cl` [Diclofenac, reference compound], in experiment [2] (Diclofenac 10 μg/kg [sic]), the “C ± m (the number of contortions for 15 minutes)” value was found to be 12.9 ± 2.13.
In the case of `O=C(Cc1ccc(O)cc1)NC(Cc1ccccc1)C(=O)O` (stereo not shown) [Compound III, p-hydroxyphenylacetylphenylalanine], the inhibition in vivo at 10 mg/kg in experiment [2] (setting [10]) came out at 39.9%. Also, the response vs control in vivo at 10 mg/kg is 60.2% in experiment [2] (setting [11]); 181% in experiment [1] (0.5 h, 10 mg/kg, 30 minutes); 160% in experiment [1] (1 h, 10 mg/kg, 60 minutes); 189% in experiment [1] (2 h, 10 mg/kg, 120 minutes). For the same molecule, the “C ± m (the number of contortions for 15 minutes)” value in experiment [2] (setting [6]) is 19.4 ± 3.3. The “latent time … M ± m” value is 6.7 ± 0.9 s in experiment [1] (setting [7]), 5.9 ± 0.8 s in experiment [1] (setting [8]) and 7.0 ± 0.6 s in experiment [1] (setting [9]). For the same molecule, the change in vivo at 10 mg/kg came out at 81% in experiment [1] (0.5 h, 10 mg/kg, 30 minutes); 59.5% in experiment [1] (1 h, 10 mg/kg, 60 minutes); 89.2% in experiment [1] (2 h, 10 mg/kg, 120 minutes).
For `CC(=O)N[C@@H](Cc1ccc(O)cc1)C(=O)NCCc1ccc(O)cc1` [Compound XXIX, acetyltyrosyltyramine], the inhibition in vivo at 10 mg/kg in experiment [2] (setting [10]) was 42.9%. For the same molecule, the response vs control in vivo at 10 mg/kg was 57.1% in experiment [2] (setting [11]); 197% in experiment [1] (0.5 h, 10 mg/kg, 30 minutes); 225% in experiment [1] (1 h, 10 mg/kg, 60 minutes); 250% in experiment [1] (2 h, 10 mg/kg, 120 minutes). In addition, the “C ± m (the number of contortions for 15 minutes)” value in experiment [2] (setting [6]) stood at 15.7 ± 1.9. For the same molecule, the “latent time … M ± m” value came out at 6.3 ± 1.2 s in experiment [1] (setting [7]), 7.2 ± 0.8 s in experiment [1] (setting [8]) and 8.0 ± 1.0 s in experiment [1] (setting [9]). Besides, the change in vivo at 10 mg/kg in experiment [1] (0.5 h, 10 mg/kg, 30 minutes) came out at 197%; in experiment [1] (1 h, 10 mg/kg, 60 minutes), 125%; in experiment [1] (2 h, 10 mg/kg, 120 minutes) it was 150%.
As to `O=C(Cc1ccccc1)NCCc1ccc(O)cc1` [Compound VI, phenylacetyltyramine], in experiment [2] (setting [10]), the inhibition in vivo at 10 mg/kg amounted to 25.5%. In addition, the response vs control in vivo at 10 mg/kg in experiment [2] (setting [11]) is 74.5%; in experiment [1] (0.5 h, 10 mg/kg, 30 minutes), 132%; in experiment [1] (1 h, 10 mg/kg, 60 minutes), 141%; in experiment [1] (2 h, 10 mg/kg, 120 minutes), 115%. Further, the “C ± m (the number of contortions for 15 minutes)” value in experiment [2] (setting [6]) is 21.1 ± 1.8. For the same molecule, the “latent time … M ± m” value in experiment [1] (setting [7]) stood at 7.8 ± 0.8 s; in experiment [1] (setting [8]), 8.3 ± 1.0 s; in experiment [1] (setting [9]), 6.8 ± 0.5 s. In addition, the change in vivo at 10 mg/kg in experiment [1] (0.5 h, 10 mg/kg, 30 minutes) amounted to 32.2%; in experiment [1] (1 h, 10 mg/kg, 60 minutes), 40.7%; in experiment [1] (2 h, 10 mg/kg, 120 minutes), 15.3%.
As to `COC(=O)C(Cc1ccccc1)NC(=O)Cc1ccc(O)cc1` (stereo not shown) [Compound V, p-hydroxyphenylacetylphenylalanine methyl ester], the inhibition in vivo at 10 mg/kg in experiment [2] (setting [10]) amounted to 39.3%. Further, the response vs control in vivo at 10 mg/kg worked out at 60.7% in experiment [2] (setting [11]); 130% in experiment [1] (0.5 h, 10 mg/kg, 30 minutes); 158% in experiment [1] (1 h, 10 mg/kg, 60 minutes); 176% in experiment [1] (2 h, 10 mg/kg, 120 minutes). For the same molecule, the “C ± m (the number of contortions for 15 minutes)” value in experiment [2] (setting [6]) was 16.2 ± 2.6. Besides, the entries for the “latent time … M ± m” value in experiment [1] (setting [7]), in experiment [1] (setting [8]) and in experiment [1] (setting [9]) were 4.85 ± 0.39 s, 5.9 ± 0.81 s and 6.58 ± 0.72 s, respectively. Also, the change in vivo at 10 mg/kg turned out to be 29.7% in experiment [1] (0.5 h, 10 mg/kg, 30 minutes); 57.8% in experiment [1] (1 h, 10 mg/kg, 60 minutes); 75.9% in experiment [1] (2 h, 10 mg/kg, 120 minutes).
In the case of `O=C(O)Cc1ccccc1Nc1c(Cl)cccc1Cl` [Voltaren, reference compound], the inhibition in vivo at 0.008 mg/kg in experiment [2] (Mus musculus, ip, 0.25 h, Voltaren 8 μg/kg, read-out: Analgetic effect (%)) amounted to 44.5%. Also, the response vs control in vivo at 0.008 mg/kg in experiment [2] (Mus musculus, ip, 0.25 h, Voltaren 8 μg/kg, read-out: C, % to the control) came to 55.5%. In experiment [2] (Voltaren 8 μg/kg), the “C ± m (the number of contortions for 15 minutes)” value was 15.8 ± 2.6.
